Test results published in PubChem BioAssay (NCI).
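Assay format: 96-well plates, 48-hour exposure. TGI: concentration producing complete growth inhibition.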

How the values were obtained:
Assay in all cases: growth of human tumour cells (NCI), 48 h
[1] = tested on: HCT-15 colon
[2] = tested on: RPMI-8226 leukemia
[3] = tested on: A498 renal
[4] = tested on: K-562 leukemia
[5] = tested on: UO-31 renal
[6] = tested on: EKVX NSCLC
[7] = tested on: HS 578T breast
[8] = tested on: NCI-H23 lung
[9] = tested on: HOP-92 NSCLC
[10] = tested on: COLO 205 colon
[11] = tested on: SW-620 colon
[12] = tested on: M14 melanoma
[13] = tested on: MDA-MB-435
[14] = tested on: UACC-257 melanoma
[15] = tested on: ACHN renal
[16] = tested on: TK-10 renal
[17] = tested on: HOP-62 NSCLC
[18] = tested on: T-47D breast
[19] = tested on: 786-0 renal
[20] = tested on: SK-MEL-2 melanoma
[21] = tested on: OVCAR-8 ovarian
[22] = tested on: NCI-H522 lung
[23] = tested on: SK-MEL-5 melanoma
[24] = tested on: OVCAR-3 ovarian
[25] = tested on: MALME-3M melanoma
[26] = tested on: SNB-19 CNS
[27] = tested on: CAKI-1 renal
[28] = tested on: HL-60(TB) leukemia
[29] = tested on: OVCAR-5 ovarian
[30] = tested on: HCT-116 colon
[31] = tested on: A549 NSCLC
[32] = tested on: KM12 colon
[33] = tested on: SF-295 CNS
[34] = tested on: OVCAR-4 ovarian
[35] = tested on: HT29 colon
[36] = tested on: LOX IMVI melanoma
[37] = tested on: CCRF-CEM leukemia
[38] = tested on: MCF7 breast
[39] = tested on: U251 CNS
[40] = tested on: MOLT-4 leukemia
[41] = tested on: PC-3 prostate
[42] = tested on: RXF 393 renal
[43] = tested on: NCI-H226 lung
[44] = tested on: NCI-H460 lung
[45] = tested on: SF-539 CNS
[46] = tested on: SR leukemia
[47] = tested on: SK-OV-3 ovarian
[48] = tested on: IGROV1 ovarian
[49] = tested on: BT-549 breast
[50] = tested on: UACC-62 melanoma
[51] = tested on: MDA-N
[52] = tested on: SNB-75 CNS
[53] = tested on: MDA-MB-231 breast
[54] = tested on: NCI/ADR-RES ovarian
[55] = tested on: SF-268 CNS
[56] = tested on: SN12C renal
[57] = tested on: HCC-2998 colon
[58] = tested on: DU-145 prostate
[59] = tested on: SK-MEL-28 melanoma

With `CCOC(=O)c1nc2ccc(C(F)(F)F)cc2nc1NCc1ccc(OC)c(OC)c1` the TGI [1] was over 100 µM, the TGI [2] was over 100 µM and the TGI [3] was over 100 µM. For the same molecule, the TGI [4] was over 100 µM, the TGI [5] was over 100 µM and the TGI [6] was over 100 µM. The TGI [7] was over 100 µM, the TGI [8] was over 100 µM and the TGI [9] was over 100 µM. The TGI [10] was over 100 µM, the TGI [11] was over 100 µM and the TGI [12] was over 100 µM. For the same molecule, the TGI [13] was over 100 µM, the TGI [14] was over 100 µM and the TGI [15] was over 100 µM. The TGI [16] was over 100 µM, the TGI [17] was over 100 µM and the TGI [18] was over 100 µM. For the same molecule, the TGI [19] was over 100 µM, the TGI [20] was 86.1 µM and the TGI [21] was over 100 µM. It also gave a TGI [22] of over 100 µM, a TGI [23] of over 100 µM and a TGI [24] of over 100 µM. The TGI [25] was over 100 µM, the TGI [26] was over 100 µM and the TGI [27] was over 100 µM. For the same molecule, the TGI [28] was over 100 µM, the TGI [29] was over 100 µM and the TGI [30] was over 100 µM. For the same molecule, the TGI [31] was over 100 µM, the TGI [32] was over 100 µM and the TGI [33] was over 100 µM. The TGI [34] was over 100 µM, the TGI [35] was over 100 µM and the TGI [36] was over 100 µM. It also gave a TGI [37] of over 100 µM, a TGI [38] of over 100 µM and a TGI [39] of over 100 µM. The TGI [40] was over 100 µM, the TGI [41] was over 100 µM and the TGI [42] was over 100 µM. For the same molecule, the TGI [43] was over 100 µM, the TGI [44] was over 100 µM and the TGI [45] was over 100 µM. It also gave a TGI [46] of over 100 µM, a TGI [47] of over 100 µM and a TGI [48] of over 100 µM. For the same molecule, the TGI [49] was over 100 µM, the TGI [50] was over 100 µM and the TGI [51] was over 100 µM. For the same molecule, the TGI [52] was over 100 µM, the TGI [53] was over 100 µM and the TGI [54] was over 100 µM. The TGI [55] was over 100 µM.
In the case of `CC(=O)NCC1OC2COC(c3ccccc3)OC2C(NC(=O)c2ccccc2)C1OC(=O)c1ccccc1` (stereo not given), the TGI [1] is reported as over 100 µM, the TGI [3] is reported as over 100 µM and the TGI [4] is reported as over 100 µM. The TGI [5] was over 100 µM, the TGI [6] was over 100 µM and the TGI [7] was over 100 µM. For the same molecule, the TGI [8] was over 100 µM, the TGI [9] was over 100 µM and the TGI [10] was over 100 µM. For the same molecule, the TGI [11] was over 100 µM, the TGI [12] was over 100 µM and the TGI [13] was over 100 µM. The TGI [14] was over 100 µM, the TGI [15] was over 100 µM and the TGI [16] was over 100 µM. It also gave a TGI [17] of over 100 µM, a TGI [18] of over 100 µM and a TGI [19] of over 100 µM. It also gave a TGI [20] of over 100 µM, a TGI [21] of over 100 µM and a TGI [23] of over 100 µM. It also gave a TGI [24] of over 100 µM, a TGI [25] of over 100 µM and a TGI [26] of over 100 µM. The TGI [56] was over 100 µM, the TGI [57] was over 100 µM and the TGI [27] was over 100 µM. The TGI [28] was over 100 µM, the TGI [29] was over 100 µM and the TGI [30] was over 100 µM. It also gave a TGI [31] of over 100 µM, a TGI [32] of over 100 µM and a TGI [33] of over 100 µM. It also gave a TGI [58] of over 100 µM, a TGI [34] of over 100 µM and a TGI [35] of over 100 µM. For the same molecule, the TGI [36] was over 100 µM, the TGI [37] was over 100 µM and the TGI [59] was over 100 µM. It also gave a TGI [38] of over 100 µM, a TGI [39] of over 100 µM and a TGI [40] of over 100 µM. It also gave a TGI [41] of over 100 µM, a TGI [42] of over 100 µM and a TGI [43] of over 100 µM. It also gave a TGI [44] of over 100 µM, a TGI [45] of over 100 µM and a TGI [47] of over 100 µM. The TGI [49] was over 100 µM, the TGI [50] was over 100 µM and the TGI [51] was over 100 µM. For the same molecule, the TGI [52] was over 100 µM, the TGI [53] was over 100 µM and the TGI [54] was over 100 µM. The TGI [55] was over 100 µM.
`COc1c(C(=O)NCCN(CCNC(=O)c2cccc(-c3cccc(C(=O)N(C)C)c3OC)c2OC)CCNC(=O)c2cccc(-c3cccc(C(=O)N(C)C)c3OC)c2OC)cccc1-c1cccc(C(=O)N(C)C)c1OC` showed a TGI [1] of over 100 µM, a TGI [2] of 63.7 µM and a TGI [4] of 65 µM. The TGI [5] was over 100 µM, the TGI [6] was over 100 µM and the TGI [7] was 87.3 µM. The TGI [8] was over 100 µM, the TGI [9] was 46.2 µM and the TGI [10] was 48.6 µM. It also gave a TGI [11] of over 100 µM, a TGI [12] of over 100 µM and a TGI [13] of 39.8 µM. It also gave a TGI [14] of 75.5 µM, a TGI [15] of over 100 µM and a TGI [17] of over 100 µM. For the same molecule, the TGI [18] was over 100 µM, the TGI [19] was over 100 µM and the TGI [21] was over 100 µM. The TGI [22] was 43.5 µM, the TGI [23] was 68.7 µM and the TGI [24] was 32.5 µM. It also gave a TGI [25] of 39.6 µM, a TGI [26] of over 100 µM and a TGI [56] of over 100 µM. The TGI [57] was 33.1 µM, the TGI [27] was over 100 µM and the TGI [28] was 69.5 µM. For the same molecule, the TGI [29] was over 100 µM, the TGI [30] was 41.4 µM and the TGI [31] was over 100 µM. It also gave a TGI [32] of 31.6 µM, a TGI [33] of over 100 µM and a TGI [58] of over 100 µM. It also gave a TGI [34] of 84 µM, a TGI [35] of over 100 µM and a TGI [36] of 33.7 µM. It also gave a TGI [37] of 72.7 µM, a TGI [59] of 41.5 µM and a TGI [38] of 78 µM. It also gave a TGI [39] of over 100 µM, a TGI [40] of 72.4 µM and a TGI [41] of over 100 µM. The TGI [42] was 63 µM, the TGI [43] was 36.6 µM and the TGI [44] was over 100 µM. The TGI [45] was 36.2 µM, the TGI [46] was 71.5 µM and the TGI [47] was over 100 µM. It also gave a TGI [48] of over 100 µM, a TGI [50] of 67.2 µM and a TGI [51] of 37.9 µM. It also gave a TGI [52] of 83.8 µM, a TGI [53] of 81.2 µM and a TGI [54] of over 100 µM. It also gave a TGI [55] of 47.2 µM.
